Reference: patent US20160040240A1, “CACNA1C ALLELE AND TREATMENT OF MOOD DISORDERS” (THE UNIVERSITY OF CHICAGO, priority 2014, published 2016)

How the values were obtained:
patient with TS Type 2 = experiment: Case report: treatment of a patient with Timothy Syndrome type 2 and bipolar disorder; type: in vivo, human
Source text: The patient is a person with TS Type 2 (see below) diagnosed in childhood. The patient was referred for research evaluation after diagnosis of BD by one of us (FO). This was confirmed by interview with the patient and their parent, using the Diagnostic Interview for Genetic Studies (DIGS), version 3.0.
Ten months after starting the medication, they were referred to a neurologist, who found depression and prescribed citalopram.
They were restarted on their antidepressant and has been stable for the three years of observation since then. We note that this is not a typical course of BD, and that further observation will be needed to fully define their course.

[1] = clinical use; cited from earlier work
[2] = verapamil: particularly in males; cited from earlier work
[3] = test system: neuronal induced pluripotent stem cells (iPSCs) derived from TS patients; conditions: TS patient iPSC-derived neuronal cells; cited from earlier work
[4] = test system: L-type channel of the Cav1.2 protein; conditions: cited from earlier work
[5] = verapamil at 250 mg/d, TS patient

In the case of `[Li]` [Lithium], the tolerability (patient with TS Type 2; given for mood stabilization, complaints of increased lethargy and irritability) is reported as “not well tolerated”.
For `COC(=O)C1=C(C)NC(C)=C(C(=O)OCCN(C)Cc2ccccc2)C1c1cccc([N+](=O)[O-])c1` (stereo not drawn) [Nicardipine], the common side effects [1] is listed as “headache, peripheral edema, dizziness, flushing, asthenia, angina, hypotension, nausea/vomiting, tachycardia, and palpitations” and the “penetration into the brain / crossing of the blood-brain barrier” value [2] is listed as “satisfactorily crosses”.
For `CC[C@H](CO)Nc1nc(NCc2ccccc2)c2ncn(C(C)C)c2n1` [roscovitine], the “reduction in the proportion of TH-positive neurons” value [3] is listed as 68%, the “reversal of excess expression of TH” value [3] is listed as “succeeds in reversing” and the “inactivation of the L-type channel” value [4] is listed as “enhanced (normalized)”.
For `COc1ccc(CCN(C)CCCC(C#N)(c2ccc(OC)c(OC)c2)C(C)C)cc1OC` (stereo not drawn) [verapamil], the QT interval (patient with TS Type 2; [5]) was “no change”, the “episodes of atrial fibrillation” value (patient with TS Type 2; [5]) was “continued to have some episodes” and the “number of ventricular fibrillation episodes” value (patient with TS Type 2; [5]) was “marked decrease”.
